Experimental data reported in US7652050B2, “Methods for increasing the survival of aquatic animals infected with an aquatic virus” (Laboratorio de Siagnóstico GAM S.A, priority 2001, dated 2010).
Converted amounts (≈) assume the structure as drawn. “Also recorded” adds a separate entry of the source. Read-outs that look alike come from different tables or passages of the source.

Assays:
in vitro = settings: Chinook salmon
IPNV [1] = test: Modified viral plaque inhibition assay with pre-incubation of virus (virus cell entry); format: cell-based, infectious pancreatic necrosis virus (IPNV); settings: for EC50: Infectious pancreatic necrosis virus
Procedure: Compounds derived from isoxazol are assayed for their ability to inhibit viral entry into the cell. To determine if acivicin blocks the entry of IPNV, a modified viral plaque inhibition assay was conducted. […] Control viral samples were not pre-incubated with acivicin. […] Overnight incubation of the virus in acivicin increased the ability of the isoxazol compound to inhibit viral plaques by 38 percent.

[2] = Uninfected Atlantic salmon fry treated with acivicin (toxicity control); format: in vivo; settings: uninfected fish treated with 14 μg/ml acivicin
Procedure: Starting nine days post-infection (day 9), surviving fish are divided into four groups of forty fish each and treated with 0, 7.0, 10.8, or 14.0 μg/ml of acivicin by immersion in a 2 hour daily bath containing […]. One group corresponded to untreated fish, and the other three groups corresponded to fish groups treated with different concentrations of acivicin. As a negative control, there were two groups of 40 healthy fish in each; one group corresponded to an uninfected fry administered 14 μg/ml of acivicin while the other group was not infected or administered acivicin. Daily treatment in acivicin continued through day 21 post-infection (day 21). The fish were followed for 36 days post-infection to detect and document mortality.

Stability in solution = format: physicochemical
IPNV [3] = test: Survival of naturally infected rainbow trout fry treated with acivicin; format: in vivo, rainbow trout (Onchorhynchus mykiss)
Procedure: FIG. 4 is a graph showing the effect of acivicin treatment on the survival of rainbow trout fry naturally infection with IPNV. The fish were followed for 30 days starting at day one of the acivicin treatments, to detect and document deaths. The data are presented in terms of percent survival: • ●---●: untreated naturally infected fish, positive control. • σ--σ: naturally infected fish treated with 9 μg/ml of Acivicin.
Acivicin was tested in vivo on thirty rainbow trout (Onchorhynchus mykiss). […] The fish were followed for 30 days following the first day of the acivicin treatments. Deaths were documented and presented in terms of percent survival. Results from methods assessing the effect of acivicin treatment on the survival of the trout fry naturally infected are shown in the graph at FIG. 4. Thirty days after the acivicin administration began, 90% of the trout fry had survived , while only 30% of the untreated control group had survived the same 30 day period. […] By contrast, in the untreated fish group, deaths continued during the first 25 days of the observation period.

IPNV genomic RNA = format: cell-based, infectious pancreatic necrosis virus (IPNV)
IPNV [4] = test: Survival of IPNV-infected Atlantic salmon fry treated with acivicin by immersion; format: in vivo
reovirus = settings: Balb/c cells; Keast et al. (1992); cited from earlier work
IPNV particles = format: cell-based, infectious pancreatic necrosis virus (IPNV); settings: acivicin 25 and 70 μg/ml, 24 and 48 h.p.i.
IPNV [5] = settings: at 100 to 300 μg/ml; cited from earlier work
IPNV [6] = settings: cited from earlier work
IPNV strain VR-299 [7] = settings: cited from earlier work
IPNV strain VR-299 [8] = test: Virus plaque inhibition assay; format: cell-based; settings: Infectious pancreatic necrosis virus, CHSE-214, 72 h, read-out: EC50, effective antiviral concentration required to inhibit IPNV plaque formation by 50%
IPNV [9] = test: Survival of IPNV-infected Atlantic salmon fry treated with neomycin by immersion; settings: neomycin 10, 40 and 80 ppm, 1 hour daily bath through day 23
[10] = acivicin 25 and 70 μg/ml, 24 and 48 h.p.i.

## Nc1ncnc2c1ncn2CC(O)C(=O)O (centres unmarked) [AHPA, 3-adenine-9-yl-2-hydroxypropanoic acid]
In vitro
  CC50 at 3 days: 75 µg/mL (≈ 336 µM)

## N[C@H](C(=O)O)[C@@H]1CC(Cl)=NO1 [Acivicin, L (alpha S, 5S)-alpha-amino-3-chloro-4.5-dihydro-5-isoxazolacetic acid]
IPNV [1]; 2 hours pre-incubation
  EC50, virus samples pre-incubated 2 hours, versus not pre-incubated: not significantly different
IPNV [1]; no pre-incubation, read-out: EC50, virus samples without pre-incubation
  EC50: 4 µg/mL (≈ 22.4 µM)
IPNV [1]; pre-incubation with 1 to 6 μg/ml acivicin overnight, read-out: EC50, virus samples pre-incubated overnight with acivicin
  EC50: 2.5 µg/mL
In vitro
  CC50: > 100 µg/mL
[2]
  Toxicity in fish: not toxic in fish
Stability in solution
  Stability in solution: stable in solution
IPNV [3]; 9 μg/ml acivicin, 15 day protocol, untreated deaths continued 25 days
  Day of treatment by which all deaths occurred: ≤ 12 days
IPNV [3]; fry 1.0±0.4 g, 9 μg/ml acivicin, daily bath of two hours, 15 days, untreated control 30%
  Survival thirty days after administration began: 90%
IPNV [3]; fry of approximately 0.8 g, treated 12 days with 9 μg/ml acivicin
  Survival: 98%
IPNV genomic RNA; [10]
  Effect on IPNV genomic RNA synthesis: did not inhibit
IPNV [4]; days 21-36, all three treated groups, untreated infected deaths reached 54 percent
  Deaths after acivicin treatments were terminated: no deaths observed
IPNV [4]; each of the treated groups, treatment began day 9 post-infection
  Day post-treatment by which deaths stopped completely: ≤ 10 day post-treatment
IPNV [4]; infected fish, 7.0 μg/ml acivicin, 2 hour daily bath from day 9 to 21 post-infection, untreated infected 30%
  Mortality rate (accumulated deaths): 30%
IPNV [4]; infected fish, 10.5 μg/ml acivicin
  Survival: 92%
IPNV [4]; infected fish, 10.5 μg/ml acivicin, 2 hour daily bath from day 9 to 21 post-infection
  Accumulated deaths: 8%
IPNV [4]; infected fish, 14 μg/ml acivicin
  Survival: 89%
IPNV [4]; infected fish, 14 μg/ml acivicin, 2 hour daily bath from day 9 to 21 post-infection
  Mortality: 11%
reovirus
  Concentration inhibiting reovirus replication: 0.1 µg/mL
IPNV particles
  Effect on IPNV particle formation: inhibits the formation of IPNV viral particles
IPNV polypeptides; [10]
  Effect on IPNV polypeptide synthesis: did not inhibit

## Nc1ncnc2c1ncn2C[C@H](O)CO [DHPA, (S)-9-(2.3-dihydroxypropyl) adenine]
IPNV [5]
  Cytotoxicity in RTG-2 cells: without presenting cytotoxicity

## C#Cc1c(C(N)=O)ncn1[C@@H]1O[C@H](CO)[C@@H](O)[C@H]1O [EICAR, 5-ethynyl-1-β-ribofuranosylimidazole-carboxamide]
IPNV [6]; rainbow trout and Coho salmon fry, given first day after infection, Moya et al. (2000)
  Deaths among experimentally IPNV-infected fry: fewer deaths occurred among the infected fry
IPNV strain VR-299 [7]; Jashés et al., Antiviral Res. 29:309 (1996)
  EC50 for IPNV: 0.01 µg/mL

## COc1c(C)c2c(c(O)c1C/C=C(\C)CCC(=O)O)C(=O)OC2 [Myconhenolic Acid, 6-(4-hydroxy-6-methoxy-7-methyl-3-oxo-5-phthalanyl)-4-methyl-4-hexenoic acid]
In vitro
  CC50 at 3 days: > 50 µg/mL
IPNV strain VR-299 [8]
  EC50: 0.5 µg/mL (≈ 1.56 µM)

## NC(=O)c1ncn([C@@H]2O[C@H](CO)[C@@H](O)[C@H]2O)n1 [Ribavirin]
IPNV [6]; Migus et al. (1980), Savan et al. (1980)
  Efficacy against IPNV in vivo: no efficacy in vivo
IPNV strain VR-299 [7]; Migus et al. (1980)
  Inhibition of IPNV replication in vitro: inhibit IPNV replication in vitro; also recorded: efficiently inhibits IPNV replication in vitro

## neomycin
IPNV genomic RNA; neomycin 4 mg/ml added 1, 3, 5, 7 h.p.i., harvest 24 h.p.i.
  Effect on IPNV genomic RNA synthesis: inhibited the IPNV RNA synthesis
IPNV [9]
  Mortality outbreak, treatment from day thirteen post-infection: stop the mortality outbreak immediately
IPNV [9]; listed as neomycin
  Mortality outbreak, treatment from day thirteen post-infection: stopped dying immediately
IPNV polypeptides; neomycin 4 mg/ml added 1, 3, 5, 7 h.p.i., 24 h.p.i.
  Effect on IPNV polypeptide synthesis: does not inhibit IPNV polypeptide synthesis
